In patent publication US20020183384A1, “Methods of treating nuclear factor-kappa B mediated diseases and disorders” (priority 2001, published 2002):

System: NF-κB mediated transcription
Assay: NF-κB driven β-lactamase reporter assay in ECV-304 NF-κB.βlaZ cells (AURORA CCF2 fluorescence)
Type: cell-based, human
Settings: Homo sapiens, ECV-304, 6 h, 10 μM compound; ECV-304 NF-κB.βlaZ cells stimulated with 10 ng/mL TNF-α or 100 pg/mL IL-1β, 6 hours at 37° C.; inhibition of maximum blue/green ratio; read-out: Percent Inhibition at 10 μM
Method in brief: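 ECV-304 cells (clone 1E8) stably carrying a β-lactamase reporter driven by 5 HIV-1 NF-κB sites, plated in M-199 with 2% FBS, compound at 10 μM final. CCF2 read at 395 nm excitation, blue 460 nm/green 530 nm emission ratio; IC50 from dose-response curve.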

Compared with `CC(C)c1cc(C(C)C)c(CC(=O)NS(=O)(=O)Oc2c(C(C)C)cc(NC(=O)CCN)cc2C(C)C)c(C(C)C)c1` [Example 220, [2-(2,4,6-Triisopropyl-phenyl)-acetyl]-sulfamic acid 4-(3-amino-propionylamino)-2,6-diisopropyl-phenyl ester; compound with trifluoro-acetic acid], `CC(C)c1cc(C(C)C)c(CC(=O)NS(=O)(=O)Oc2c(C(C)C)cc(NC(=O)[C@@H](N)CO)cc2C(C)C)c(C(C)C)c1` [Example 230, [2-(2,4,6-Triisopropyl-phenyl)-acetyl]-sulfamic acid 4-((S)-2-amino-3-hydroxy-propionylamino)-2,6-diisopropyl-phenyl ester; compound with trifluoro-acetic acid] is higher in inhibition at 10 µM: 65.5% for the first, 75.2% for the second.

First: CC(C)c1cccc(C(C)C)c1OS(=O)(=O)NC(=O)N1CCc2ccccc21 [Example 222, (2,3-Dihydro-indole-1-carbonyl)-sulfamic acid 2,6-diisopropyl-phenyl ester]
Second: CC(C)c1cccc(C(C)C)c1OS(=O)(=O)NC(=O)NC(c1ccccc1)(c1ccccc1)c1ccccc1 [Example 223, Sulfamic acid, [[(triphenylmethyl)amino]carbonyl]-, 2,6-bis(1-methylethyl)phenyl ester]
The inhibition at 10 µM of the first is lower: less than 10% for the first, 68.2% for the second.

First: CC(C)c1cc(C(C)C)c(CC(=O)NS(=O)(=O)Oc2c(C(C)C)cc(C=CC#N)cc2C(C)C)c(C(C)C)c1 [Example 224, [(2,4,6-Triisopropyl-phenyl)-acetyl]-sulfamic acid 4-(2-cyano-vinyl)-2,6-diisopropyl-phenyl ester]
Second: CC(C)c1cc(C(C)C)c(CC(=O)NS(=O)(=O)Oc2c(C(C)C)cc(NS(C)(=O)=O)cc2C(C)C)c(C(C)C)c1 [Example 227, [(2,4,6-Triisopropyl-phenyl)-acetyl]-sulfamic acid 2,6-diisopropyl-4-methanesulfonylamino-phenyl ester]
The inhibition at 10 µM of the first is lower: less than 10% for the first, 77.3% for the second.

Going from `CC(C)c1cc(C(C)C)c(CC(=O)NS(=O)(=O)Oc2c(C(C)C)cc(NS(=O)(=O)c3cccs3)cc2C(C)C)c(C(C)C)c1` [Example 225, [(2,4,6-Triisopropyl-phenyl)-acetyl]-sulfamic acid 2,6-diisopropyl-4-(thiophene-2-sulfonylamino)-phenyl ester] to `CC(C)c1cc(C(C)C)c(CC(=O)NS(=O)(=O)Oc2c(C(C)C)cc(NS(=O)(=O)c3cccc4c(N(C)C)cccc34)cc2C(C)C)c(C(C)C)c1` [Example 226, [(2,4,6-Triisopropyl-phenyl)-acetyl]-sulfamic acid 4-(5-dimethylamino-naphthalene-1-sulfonylamino)-2,6-diisopropyl-phenyl ester], the inhibition at 10 µM rises from 26.4% to 46.3%.

Going from `COC(=O)c1cc(C(C)C)c(OS(=O)(=O)NC(=O)Cc2c(C(C)C)cc(C(C)C)cc2C(C)C)c(C(C)C)c1` [Example 228, 3,5-Diisopropyl-4-{[(2,4,6-triisopropyl-phenyl)-acetyl]sulfamoyloxy}-benzoic acid methyl ester] to `CC(C)c1cc(C(C)C)c(CC(=O)NS(=O)(=O)Oc2c(C(C)C)cc(NC(=O)[C@@H](N)CCC(N)=O)cc2C(C)C)c(C(C)C)c1` [Example 231, [2-(2,4,6-Triisopropyl-phenyl)-acetyl]-sulfamic acid 4-((S)-2-amino-4-carbamoyl-butyrylamino)-2,6-diisopropyl-phenyl ester; compound with trifluoro-acetic acid], the inhibition at 10 µM rises from 76.1% to 78.1%.

Same assay, conditions: Homo sapiens; 10 μM compound; ECV-304 NF-κB.βlaZ cells stimulated with 10 ng/mL TNF-α or 100 pg/mL IL-1β, 6 hours at 37° C.; inhibition of maximum blue/green ratio; read-out: Percent Inhibition at 10 μM

In the case of `CC(C)(C)c1cccc(C(C)(C)C)c1OC(=O)NS(=O)(=O)Nc1ccccc1Cc1ccccc1` [Example 221, Carbamic acid, [[[2-(phenylmethyl)phenyl]amino]sulfonyl]-, 2,6-bis(1,1-dimethylethyl)phenyl ester], the inhibition at 10 µM is reported as 44.7%.
